Results on two compounds are retold here after patent US20240075009A1, “TREATMENT OF S[…] PSILOCIN OR PSILOCYBIN” (NEW YORK UNIVERSITY, priority 2021, published 2024).

Holding throughout (type): in vivo, human
Assay [1] deals with cancer patients. Briefly: Composite suicidal ideation (SI) score (BDI-II item #9 + BSI item #9, T-scores), crossover trial with psychotherapy. To be noted: for Composite SI within-subject effect size relative to baseline, Cohen's d: psilocybin-1st group. As for the experimental part: (§1) 29 participants were randomly assigned to one of two groups: psilocybin (0.3 mg/kg) on the first medication session followed by niacin (250 mg) on the second session (i.e. psilocybin-first group), or niacin (250 mg) on the first medication session followed by psilocybin (0.3 mg/kg) on the second session (i.e. niacin-first group). Psilocybin and niacin were administered in identically appearing gelatin capsules.
(§2) Participants received three 2-hour preparatory psychotherapy sessions in order to review the purpose and intention of participation in the study, treatment goals, and structure of the treatment sessions. Medications were administered in 8-hour treatment sessions which included a discussion of the participant's subjective experience with the treatment team to consolidate the memory of the experience and to begin the process of post-integrative psychotherapy. Participants also received three 2-hour post-medication integration sessions (repeated after the second dosing session) to further consolidate the memory of the experience and to continue the process of psychological integration. All psychotherapy treatment sessions were delivered by a dyadic therapy team trained in a blend of psychotherapies with an evidence base to support their use in cancer patients (drawing upon principles of palliative care therapy, existential psychotherapy, cognitive-behavioural therapy, psychoanalysis therapy, and transpersonal psychology) and were taught about the safety and clinical pharmacology of psilocybin. Each therapy dyad underwent six confidential one-to-one sessions to build their alliance and exchange ideas about psychedelic therapy. The trial employed a crossover design at seven weeks following the first drug administration, with an outcome assessment at 6.5 months (26 weeks) following the second drug administration (i.e. after the crossover).
(§3) Two long-term follow ups (LTFUs) were carried out to assess the continued effect of psilocybin.
(§4) Primary outcomes (suicidal ideation and desire for hastened death) were measured according to the following methods: • Beck Depression Inventory-II (BDI-II) (Beck et al., 1988)— this is a widely used self-report measure to assess depression. The BDI-II comprises 21 questions related to depressive symptoms experienced over the previous two weeks, and is rated on a […] (total score ranges from 0-63). Scores greater than 12 correlate with clinical depression. […] Item #9 on the BDI queries suicidal ideation with the following options: 0=I don't have any thoughts of killing myself; 1=I have thoughts of killing myself, but I would not carry them out; 2=I would like to kill myself; 3=I would kill myself if I had the chance. The BDI-II was assessed at baseline, 1-day prior to dose-1, 8-hours after dose-1, 1-day after dose-1, 2-weeks after dose-1, 6-weeks after dose-1, 7-weeks after dose-1 (corresponding to 1-day prior to dose-2), 1-day after dose-2, 6-weeks after dose-2, 26-weeks after dose-2, and at the 3.2 year and 4.5 year LTFU assessments. • The Brief Symptom Inventory (BSI) (Derogatis 1993) is a 53-item self-report questionnaire that assesses a range of psychiatric symptoms, generating 9 domains (depression, anxiety, phobic anxiety, somatization, obsession-compulsion, interpersonal sensitivity, hostility, paranoid ideation, psychoticism) and a global severity index.

The test system of assay [2] is cancer patients. In words: Composite desire for hastened death (DHD) score (5 loss-of-meaning items of the Demoralization Scale), crossover trial with psychotherapy. Particulars: for DHD within-subjects reduction relative to baseline: combined groups. How it is done: as §1, §2, §3, §4
Assay [3] deals with cancer patients. Briefly: Primary outcomes DHD and SI taken together: within-subject effect sizes across measures and time points. As for the experimental part: as §1
Participants received three 2-hour preparatory psychotherapy sessions in order to review the purpose and intention of participation in the study, treatment goals, and structure of the treatment sessions. Medications were administered in 8-hour treatment sessions which included a discussion of the participant's subjective experience with the treatment team to consolidate the memory of the experience and to begin the process of post-integrative psychotherapy. […]
Primary outcomes (suicidal ideation and desire for hastened death) were measured according to the following methods: • Beck Depression Inventory-II (BDI-II) (Beck et al., 1988)— this is a widely used self-report measure to assess depression. […] It is measured on a Likert scale: 0=Not at all; 1=Little, 2=Moderately; 3=Quite a bit; 4=Extremely. […]

Setting [4] is: after crossover, both dose-sequence groups combined, 6.5-month follow-up, p<0.001.

SMILES strings stand for the structures.

As to `O=C(O)c1cccnc1` [niacin], the “Composite suicidality/SI score, main effect of time within group” value in the assay with cancer patients [1] (niacin-1st group (250 mg), prior to the crossover, p=0.065, n=5) is “no significant main effect of time”. The “Composite DHD score, main effect of time within group” value with cancer patients [2] (niacin-1st group (250 mg), prior to the crossover, p=0.079, n=5) is “no significant main effect of time”.
For the compound `CN(C)CCc1c[nH]c2cccc(OP(=O)(O)O)c12` [psilocybin, [3-(2-dimethylaminoethyl)-1H-indol-4-yl] dihydrogen phosphate], the “Composite SI within-subjects change relative to baseline” value in the assay on cancer patients [1] (setting [4]) is given as “statistically significant within-subjects reductions”. Also, in the assay with cancer patients [1] (prior to the crossover, psilocybin 0.3 mg/kg, interaction p=0.065, group p=0.614), the “Composite SI, between-group comparison psilocybin-1st vs niacin-1st” value is “no significant differences between the two groups”. Further, the “Composite SI within-subject effect size relative to baseline, Cohen's d” value with cancer patients [1] (2-weeks post-dose 1, p<0.001) is listed as 2.40; in the assay on cancer patients [1] (7-weeks post-dose 1, p<0.001) it was 3.50; in the assay on cancer patients [1] (8-hours post-dose 1, p<0.001) it was 2.40. For the same compound, in the assay with cancer patients [3] (after crossover, combined groups, 6.5 months to 4.5 years), the “Within-subjects effect sizes across DHD and SI and time points, Cohen's d range” value is listed as 1.51-2.56. Further, in the assay on cancer patients [3] (psilocybin-1st group, pre-crossover, statistically significant reductions), the “Within-subject effect sizes across DHD and SI and time points, Cohen's d range” value is reported as 1.20-3.50. Besides, in the assay with cancer patients [2] (2-weeks post dose-1, pre-crossover, p=0.005, n=6), the “DHD mean score relative to baseline, within psilocybin-1st group” value is given as “differed significantly”. In the assay on cancer patients [2] (2-weeks post dose-1, pre-crossover, psilocybin 0.3 mg/kg single dose, n=6 vs n=5), the “DHD between-group difference, psilocybin-1st vs niacin-1st, Cohen's d” value is listed as 1.32. In the assay on cancer patients [2] (setting [4]), the “DHD within-subjects change relative to baseline” value is “statistically significant within-subjects reductions”. Besides, the “DHD within-subjects reduction relative to baseline” value with cancer patients [2] (after crossover, 3.2-year follow-up, p<0.001) is given as “remained significant”; in the assay on cancer patients [2] (after crossover, 4.5-year follow-up, p<0.001), “remained significant”.
